Measured values as given in patent US12336981B2, “Compounds and compositions for the inhibition of NAMPT” (Valo Health, Inc., priority 2010, dated 2025).
Read-outs that look alike come from different tables or passages of the source.

Legend:
[1] = target: T1, NAMPT (Homo sapiens, UniProt P43490); experiment: Biochemical inhibition assay: NAMPT enzymatic reaction, NMN quantified by mass spectrometry; settings: read-out: Biochem IC50
T1 construct: His tag; host or cells: E. coli
Method in brief: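 Inhibition of E. coli-expressed His-tagged human NAMPT, measured as NMN formation by mass spectrometry after a 30 min room-temperature reaction containing 1 μM NAM, 100 μM PRPP and 2.5 mM ATP.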

[2] = system: A2780 cells; experiment: In-vitro cell proliferation assay (SRB), A2780 cells; assay type: cell-based; settings: Homo sapiens, A2780, 72 h, A2780 cells, 72 hours, read-out: A2780 IC50
Method in brief: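 Viable cells measured by SRB staining after 6% TCA fixation, absorbance 570 nm. Media-only background subtracted; % inhibition derived at two compound concentrations.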

T1 sequence (P43490 whole entry): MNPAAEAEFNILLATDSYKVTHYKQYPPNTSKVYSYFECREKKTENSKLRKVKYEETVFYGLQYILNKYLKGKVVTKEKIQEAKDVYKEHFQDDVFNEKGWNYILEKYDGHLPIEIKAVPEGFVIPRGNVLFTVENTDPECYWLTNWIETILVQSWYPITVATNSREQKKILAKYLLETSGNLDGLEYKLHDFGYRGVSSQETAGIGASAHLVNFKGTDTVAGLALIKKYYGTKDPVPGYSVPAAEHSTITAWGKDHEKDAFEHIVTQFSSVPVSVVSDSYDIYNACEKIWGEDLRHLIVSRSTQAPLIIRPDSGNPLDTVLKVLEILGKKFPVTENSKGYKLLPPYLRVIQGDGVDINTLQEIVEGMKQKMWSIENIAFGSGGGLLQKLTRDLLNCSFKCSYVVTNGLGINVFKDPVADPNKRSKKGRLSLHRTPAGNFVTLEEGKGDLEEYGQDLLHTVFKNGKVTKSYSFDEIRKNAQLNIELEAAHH

COc1ccccc1S(=O)(=O)c1ccc(CNC(=O)c2cnc3nccn3c2)cc1 [N-({4-[(2-methoxybenzene)sulfonyl]phenyl}methyl)imidazo[1,2-a]pyrimidine-6-carboxamide]
IC50 ([1]; NAMPT enzymatic reaction): 3.9 nM
IC50 ([2]; SRB): 74.7 nM

CCCOc1ccc(S(=O)(=O)c2ccc(CNC(=O)c3cc4ccncc4s3)cc2)cc1F
IC50 ([1]; NAMPT enzymatic reaction): 3.7 nM
IC50 ([2]; SRB): 8.1 nM

Cc1cncc(S(=O)(=O)c2ccc(CNC(=O)c3ccc4nccn4c3)cc2)c1 [N-{[4-(5-methylpyridine-3-sulfonyl)phenyl]methyl}imidazo[1,2-a]pyridine-6-carboxamide]
IC50 ([1]; NAMPT enzymatic assay): 36.8 nM
IC50 ([2]; SRB): 7.1 nM

CC(=O)c1cccc(S(=O)(=O)c2ccc(CNC(=O)c3cc4cnccc4[nH]3)cc2)c1 [N-({4-[(3-acetylbenzene)sulfonyl]phenyl}methyl)-1H-pyrrolo[3,2-c]pyridine-2-carboxamide]
IC50 ([1]; NAMPT enzymatic reaction): 12 nM
IC50 ([2]; SRB assay): 6 nM

CCCn1cc(S(=O)(=O)c2ccc(CNC(=O)c3cnc4[nH]ncc4c3)cc2)cn1 [N-{[4-(1-propyl-1H-pyrazole-4-sulfonyl)phenyl]methyl}-1H-pyrazolo[3,4-b]pyridine-5-carboxamide]
IC50 ([1]; NAMPT enzymatic assay): 8 nM
IC50 ([2]; SRB): 7 nM

O=C(NCc1ccc(S(=O)(=O)c2nccs2)cc1)c1ccc2nccn2c1 [N-{[4-(1,3-thiazole-2-sulfonyl)phenyl]methyl}imidazo[1,2-a]pyridine-6-carboxamide]
IC50 ([1]; NAMPT enzymatic assay): 21 nM
IC50 ([2]; SRB): 99.4 nM

O=C(NCc1ccc(S(=O)(=O)c2cncc3ccccc23)cc1)c1cnc2[nH]ncc2c1 [N-{[4-(isoquinoline-4-sulfonyl)phenyl]methyl}-1H-pyrazolo[3,4-b]pyridine-5-carboxamide]
IC50 ([1]; NAMPT enzymatic assay): 3.7 nM
IC50 ([2]; SRB): 2.5 nM

Cc1ccc(S(=O)(=O)c2ccc(CNC(=O)c3cnc4[nH]ncc4c3)cc2)cc1F
IC50 ([1]; NAMPT enzymatic reaction): 11.7 nM
IC50 ([2]; SRB): 5.6 nM

O=C(NCc1ccc(S(=O)(=O)c2cnn(-c3cccc(Cl)c3)c2)cc1)c1cnc2nccn2c1 [N-({4-[1-(3-chlorophenyl)-1H-pyrazole-4-sulfonyl]phenyl}methyl)imidazo[1,2-a]pyrimidine-6-carboxamide]
IC50 ([1]; NAMPT enzymatic assay): 2.2 nM
IC50 ([2]; SRB): 11.5 nM

O=C(NCc1ccc(S(=O)(=O)c2ccccc2)cc1)N1CCc2[nH]cnc2C1 [N-{[4-(benzenesulfonyl)phenyl]methyl}-1H,4H,5H,6H,7H-imidazo[4,5-c]pyridine-5-carboxamide]
IC50 ([1]; NAMPT enzymatic reaction): > 2000 nM
IC50 ([2]; SRB assay): > 2000 nM

CC(C)c1ccc(S(=O)(=O)c2ccc(CNC(=O)c3cc4ccncc4o3)cc2)cc1
IC50 ([1]; NAMPT enzymatic assay): 11.9 nM
IC50 ([2]; SRB): 8 nM

O=C(NCc1ccc(S(=O)(=O)c2cccc3cccnc23)cc1)c1cnc2nccn2c1 [N-{[4-(quinoline-8-sulfonyl)phenyl]methyl}imidazo[1,2-a]pyrimidine-6-carboxamide]
IC50 ([1]; NAMPT enzymatic assay): 3 nM
IC50 ([2]; SRB): 27.7 nM

COc1ccc(S(=O)(=O)c2ccc(CNC(=O)c3cnc4[nH]ncc4c3)cc2)cc1OC
IC50 ([1]; NAMPT enzymatic reaction): 20.6 nM
IC50 ([2]; SRB): 5.6 nM

COc1ccc(S(=O)(=O)c2ccc(CNC(=O)c3cnc4[nH]ncc4c3)cc2)c(F)c1
IC50 ([1]; NAMPT enzymatic reaction): 120 nM
IC50 ([2]; SRB): 207 nM

O=C(NCc1ccc(S(=O)(=O)c2cccc3cccnc23)cc1)c1cc2ccncc2o1 [N-{[4-(quinoline-8-sulfonyl)phenyl]methyl}furo[2,3-c]pyridine-2-carboxamide]
IC50 ([1]; NAMPT enzymatic assay): 7.6 nM
IC50 ([2]; SRB): 6 nM

O=C(NCc1ccc(S(=O)(=O)c2ccccc2)cc1)N1CCc2[nH]ncc2C1 [N-{[4-(benzenesulfonyl)phenyl]methyl}-1H,4H,5H,6H,7H-pyrazolo[4,3-c]pyridine-5-carboxamide]
IC50 ([1]; NAMPT enzymatic reaction): > 2000 nM
IC50 ([2]; SRB assay): > 2000 nM

COc1ccc(OC(F)(F)F)cc1S(=O)(=O)c1ccc(CNC(=O)c2cnc3[nH]ncc3c2)cc1
IC50 ([1]; NAMPT enzymatic assay): 92.6 nM
IC50 ([2]; SRB): 24.6 nM

Cc1cc(Cl)cnc1S(=O)(=O)c1ccc(CNC(=O)c2cnc3[nH]ncc3c2)cc1 [N-{[4-(5-chloro-3-methylpyridine-2-sulfonyl)phenyl]methyl}-1H-pyrazolo[3,4-b]pyridine-5-carboxamide]
IC50 ([1]; NAMPT enzymatic assay): 62.5 nM
IC50 ([2]; SRB): 75.3 nM
